Laboratory results published in paper PMC8274846, “Biogenic nanoporous silicon carrier improves the efficacy of buparvaquone against resistant visceral leishmaniasis” (PLoS Neglected Tropical Diseases, 2021).

Key:
[1] = system: axenic L.donovani amastigotes, AG83-R, PMM (PMM resistant strain generated from AG83); test: microbe, parasite or virus in culture; format: cell-based; conditions: for Resistance index (RI), AG83-R, PMM: IC50 against drug resistant strain / IC50 against wild-type strain (AG83), axenic; for IC50: Leishmania donovani, read-out: Axenic IC50, AG83-R, PMM
Method: (§1) L. donovani AG83 (MHOM/IN/83/AG83) and GE1 (MHOM/IN/80/GE1F8R) promastigotes were routinely grown in medium 199 supplemented with 10% heat-inactivated fetal bovine serum, 2 mM L-glutamine, 20 mM HEPES, 100 U/mL penicillin, and 100 μg/mL streptomycin at 25°C. L. donovani amastigote forms were grown and maintained as described previously. Axenic amastigote forms were derived from promastigote forms by culturing them in MMA/20 (medium for axenic amastigote) at pH 5.5 [22]. Axenically grown amastigotes were maintained by sub-culture of 10^5 parasites/ml repeated every fifth day under experimental conditions of 37°C temperature and 5% CO2 environment.
(§2) SSG and PMM resistant L. donovani amastigotes were generated by using the methods described previously. […] The cultures were stabilized for three subcultures. Then, the drug concentration was increased until the cell population decreased approximately to 20% for each batch. Finally, when 90% cell population of the initial count was reduced, the phenotype generated was plated on medium 199 agar plates containing the same drug concentration, and a single colony was picked for culture in medium 199 liquid media at the same drug concentration. The cultured promastigotes are converted into amastigotes as described above. Drug pressure was withdrawn, and stability was checked at one, two, and four months. SSG and PMM resistant phenotype clones were labeled as AG83-R,SSG and AG83-R, PMM, respectively.
(§3) The antileishmanial activity of the drug specimens (BPQ+NP, BPQ, SSG, AmB, PMM, and MF) against the axenic amastigotes were evaluated based on the IC50 value, which is the concentration of the specimen required to kill 50% of the parasites. The parasites were first seeded into 96-well plates at a density of 1x10^5 amastigotes/well in 200 μL medium. Then, 10 μL of the drug candidates at various concentrations were added and the final volume was adjusted to […] medium. The number of amastigotes in the wells treated with each specimen were compared to those in the untreated control wells.
(§4) Microscopic examinations were performed in duplicates with various concentrations of pure drugs or buparvaquone-loaded nanoparticles and also for control wells. The amastigotes cells were counted for all cases using a hemocytometer. The mean of the control wells was considered as 100% survival. The counts in the treated wells at various concentrations were converted into percentages. Giemsa-stained slides of the macrophages infected with amastigotes were observed under a light microscope. Then the numbers of amastigotes and infected macrophages per 100 cells were counted for each slide. The percentage (%) of inhibition was calculated by using the equation %ofinhibition=C−T/C×100, (2) where C is the number of amastigotes/infected macrophages per 100 cells in the control well and T is the number of amastigotes/infected macrophages per 100 cells in the drug-treated well.
(§5) Origin version 6.1 software was used to calculate IC50 and CC50 values by plotting a graph of the percentage of inhibition at various concentrations of all the observations.

[2] = system: axenic L.donovani amastigotes, AG83-R, SSG (SSG resistant strain generated from AG83); test: microbe, parasite or virus in culture; format: cell-based; conditions: for Resistance index (RI), AG83-R, SSG: IC50 against drug resistant strain / IC50 against wild-type strain (AG83), axenic; for IC50: Leishmania donovani, read-out: Axenic IC50, AG83-R, SSG
Method: as §1, §2, §3, §4, §5

[3] = system: intracellular L.donovani amastigotes, AG83-R, PMM, in macrophages; test: microbe, parasite or virus in culture; format: cell-based; conditions: for Selectivity index (SI), AG83-R, PMM: CC50/IC50, intracellular; for IC50: Leishmania donovani, Macrophage, read-out: Cellular IC50, AG83-R, PMM
Method: as §2
(§6) The intracellular antileishmanial activity was evaluated based on the reduction in the amastigote numbers in the infected macrophages after the treatment. The method was adapted from our previous work. Briefly, 4x10^6 amastigotes in 500 μL of RPMI-1640 suspension were added to each well containing macrophages with the macrophage: parasite ratio of 1:10. The plates were incubated for 4 h at 37°C in 5% CO2. After the parasite internalization period, cells were washed at least twice with fresh media to remove non-phagocytosed parasites. Then, the drug specimen suspended in 1 mL RPMI-1640 was added, and the samples were incubated for 72 h at 37°C in 5% CO2. The medium was aspirated, the coverslips were removed, and then fixed with methanol and air-dried. After staining with Giemsa, 100 cells on the glass discs were counted. Three independent experiments in quadruplicate for each concentration were performed.
as §4, §5

[4] = system: intracellular L.donovani amastigotes, AG83-R, SSG, in macrophages; test: microbe, parasite or virus in culture; format: cell-based; conditions: for Selectivity index (SI), AG83-R, SSG: CC50/IC50, intracellular; for IC50: Leishmania donovani, Macrophage, read-out: Cellular IC50, AG83-R, SSG
Method: as §2, §6, §4, §5

[5] = Cytotoxicity studies (CC50) on peritoneal macrophages; format: cell-based, BALB/c mice; conditions: BALB/c, mouse, resident peritoneal macrophages, 48 h exposure, mean ± σ, n = 3
Method: (§7) Resident peritoneal macrophages were isolated from BALB/c mice. For the isolation, 1.5 mL of sterile thioglycolate medium was injected into the peritoneal cavity to induce non-infectious inflammation. Animals were sacrificed after 5 days, and peritoneal exudates were harvested by intraperitoneal lavage. Cold RPMI (6 mL) was injected into the peritoneal cavity. After 10 min, the injected fluid was withdrawn by the same syringe. From each animal, approximately 3-4 mL of medium was recovered. After centrifugation at 200 g for 15 min, macrophages were collected. […] The cytotoxicity of the drug specimen was evaluated by the CC50 value, which is the concentration required to kill 50% of the host cell population. Macrophages were first isolated from peritoneal lavage as described above. The cells were seeded into 96-well plates at 1x10^6 cells/mL in 200 μL of RPMI-1640 supplemented with 10% FCS, 20 mM L-glutamine, 16 mM NaHCO3, penicillin (50 U/mL) and streptomycin (50 μg/ mL) at 37°C in 5% CO2 for 4 h for adherence. To remove the non-adherent cells, each plate was washed two times with phosphate buffer saline (pH 7.2). […] Microscopic examinations were performed in duplicates with various concentrations of pure drugs or buparvaquone-loaded nanoparticles and also for control wells. The amastigotes cells were counted for all cases using a hemocytometer. The mean of the control wells was considered as 100% survival. The counts in the treated wells at various concentrations were converted into percentages. Giemsa-stained slides of the macrophages infected with amastigotes were observed under a light microscope. Then the numbers of amastigotes and infected macrophages per 100 cells were counted for each slide. The percentage (%) of inhibition was calculated by using the equation %[…]×100, (2) where C is the number of amastigotes/infected macrophages per 100 cells in the control well and T is the number of amastigotes/infected macrophages per 100 cells in the drug-treated well.

[6] = system: axenic L.donovani amastigotes, GE1 (isolated strain resistant to SSG); test: Antileishmanial activity against axenic amastigotes, GE1; format: cell-based; conditions: for Resistance index (RI), GE1: IC50 against drug resistant strain / IC50 against wild-type strain (AG83), axenic; for IC50: Leishmania donovani
Method: as §1, §3, §4, §5

[7] = system: axenic L.donovani amastigotes, wild-type AG83; test: Antileishmanial activity against axenic amastigotes, wild-type AG83; format: cell-based; conditions: axenic amastigotes, mean ± σ, n = 4; for IC50: Leishmania donovani
Method: as §1, §3, §4, §5

[8] = system: intracellular L.donovani amastigotes, wild-type AG83, in macrophages; test: Antileishmanial activity against intracellular amastigotes, wild-type AG83; format: cell-based; conditions: for Selectivity index (SI), AG83: CC50/IC50, intracellular; for IC50: Leishmania donovani, Macrophage, mean ± σ, n = 4, read-out: Cellular IC50, Wild-type AG83
Method: as §6, §4, §5

[9] = system: intracellular L.donovani amastigotes, GE1, in macrophages; test: Antileishmanial activity against intracellular amastigotes, GE1; format: cell-based; conditions: for Selectivity index (SI), GE1: CC50/IC50, intracellular; for IC50: Leishmania donovani, Macrophage, mean ± σ, n = 4, read-out: Cellular IC50, GE1
Method: as §6, §4, §5

[10] = system: wild-type AG83 promastigotes; test: IC50 against wild-type AG83 promastigotes (used for generation of resistant strains); format: cell-based, L. donovani
Method: as §2

[11] = system: resident peritoneal macrophages; test: Cytotoxicity studies (CC50) on peritoneal macrophages; format: cell-based, BALB/c mice; conditions: 48 h exposure, values for SSG given in μg/ml
Method: as §7

[12] = system: L.donovani; parameters: method as in PMID 25936561; conditions: L.donovani infection; cited from earlier work
[13] = system: liver parasite burden; parameters: method as in PMID 14695832, PMID 17715126; conditions: BALB/c mice; cited from earlier work
[14] = axenic amastigotes, mean ± σ, n = 4
[15] = intracellular amastigotes, 72 h
[16] = axenic amastigotes, values for SSG given in μg/ml, mean ± σ, n = 4
[17] = intracellular amastigotes, 72 h, values for SSG given in μg/ml

Structure (SMILES)	Resistance index (RI), AG83-R, PMM [1]	IC50 [1]	Resistance index (RI), AG83-R, SSG [2]	IC50 [2]	Selectivity index (SI), AG83-R, PMM [3]	IC50 ([3]; 72 h)	Selectivity index (SI), AG83-R, SSG [4]	IC50 ([4]; 72 h)	CC50 at 48 h [5]	Resistance index (RI), GE1 [6]	IC50 [6, 14]	IC50 [7]	Selectivity index (SI), AG83 [8]	IC50 [8, 15]	Selectivity index (SI), GE1 [9]	IC50 [9, 15]	other results
C[C@@H]1[C@H](O)[C@@H](C)/C=C/C=C/C=C/C=C/C=C/C=C/C=C/[C@H](O[C@@H]2O[C@H](C)[C@@H](O)[C@H](N)[C@@H]2O)C[C@@H]2O[C@](O)(C[C@@H](O)C[C@@H](O)[C@H](O)CC[C@@H](O)C[C@@H](O)CC(=O)O[C@H]1C)C[C@H](O)[C@H]2C(=O)O [AmB, amphotericin B]	1.2 ± 0.2	0.3 ± 0.1 µM	1.1 ± 0.1	0.3 ± 0.1 µM	70 ± 10	0.3 ± 0.1 µM	70 ± 10	0.2 ± 0.1 µM	15 ± 2 µM	1.1 ± 0.2	0.3 ± 0.1 µM	0.2 ± 0.1 µM	80 ± 10	0.2 ± 0.1 µM	90 ± 10	0.2 ± 0.1 µM	
CCCCCCCCCCCCCCCCOP(=O)([O-])OCC[N+](C)(C)C [MF, miltefosine]	1.1 ± 0.2		1.3 ± 0.2	0.6 ± 0.1 µM	70 ± 10		60 ± 5	0.7 ± 0.1 µM	36 ± 4 µM	1.1 ± 0.3	0.5 ± 0.1 µM	0.5 ± 0.1 µM	100 ± 10	0.4 ± 0.1 µM	80 ± 10	0.5 ± 0.1 µM	
NC[C@@H]1O[C@H](O[C@H]2[C@@H](O)[C@H](O[C@@H]3[C@@H](O)[C@H](N)C[C@H](N)[C@H]3O[C@H]3O[C@H](CO)[C@@H](O)[C@H](O)[C@H]3N)O[C@@H]2CO)[C@H](N)[C@@H](O)[C@@H]1O [PMM, paromomycin]	27 ± 2	327 ± 12 µM	32 ± 3	384 ± 23 µM	2 ± 1	120 ± 10 µM	2 ± 1	140 ± 10 µM	260 ± 20 µM	2.1 ± 0.3	25 ± 2 µM	12 ± 1 µM	30 ± 5	9 ± 2 µM	13 ± 2	20 ± 3 µM	IC50 ([10]; Leishmania donovani, medium 199, read-out: IC50 against the parasite): 10 µM
O.O.O.O.O.O.O.O.O.O=C([O-])[C@@H]1[O][Sb](=[O])([O][Sb]2(=[O])[O][C@H]([C@H](O)CO)[C@H](O)[C@H](C(=O)[O-])[O]2)[O][C@H]([C@H](O)CO)[C@@H]1O.[Na+].[Na+].[Na+] (stereo partly drawn) [SSG, sodium stibogluconate]	32 ± 3		38 ± 4		2 ± 1		1 ± 1			4 ± 1			15 ± 4		4 ± 2		Axenic IC50, AG83-R, PMM [1, 16]: 113 ± 15 mg/L; Axenic IC50, AG83-R, SSG [2, 16]: 133 ± 15 mg/L; Cellular IC50, AG83-R, PMM [3, 17]: 20 ± 2 mg/L; Cellular IC50, AG83-R, SSG [4, 17]: 22 ± 2 mg/L; CC50 [11]: 27 ± 2 mg/L; Axenic IC50, GE1 [6, 16]: 14 ± 2 mg/L; Axenic IC50, Wild-type AG83 ([7]; values for SSG given in μg/ml): 3.5 ± 0.7 mg/L; Cellular IC50, Wild-type AG83 [8, 17]: 1.8 ± 0.2 mg/L; Cellular IC50, GE1 [9, 17]: 7.5 ± 0.3 mg/L; IC50 against the parasite ([10]; medium 199): 3.6 mg/L
C[C@@H]1CC[C@H]2[C@@H](C)C(=O)O[C@@H]3O[C@@]4(C)CC[C@@H]1[C@]32OO4 [artemisinin]																	Reduction of parasite burdens (liver and spleen) [12]: ~ 50%
CC(C)(C)C1CCC(CC2=C(OP(=O)(O)O)C(=O)c3ccccc3C2=O)CC1 (stereo not drawn) [buparvaquone-3-phosphate]																	Reduction in the liver parasite burden [13]: 34%
